A short description of this series: Stability of docetaxel dissolved and left standing in alcohols at 50° C. (HPLC purity and degradation degree). In kind it is physicochemical. To be noted: dissolution and standing at 50° C. The protocol: The purity and recovery rate of docetaxel in the present specification were calculated by quantity analysis using HPLC under the conditions of Table 2.
To evaluate the stability of docetaxel in the case that hydrated crystalline docetaxel is prepared by dissolution in alcohols at a high temperature, methanol and ethanol were each used as an organic solvent and dissolution temperature and standing temperature were 50° C., and change in purity of docetaxel and degradation degree were measured after letting it stand for 0, 1, 5, 10, and 24 hours.

Where “and” joins values, the source holds several entries; their conditions need not be identical. Equal entries are not always repeated.

As to `CC(=O)O[C@@]12CO[C@@H]1C[C@H](O)[C@@]1(C)C(=O)[C@H](O)C3=C(C)[C@@H](OC(=O)[C@H](O)[C@@H](NC(=O)OC(C)(C)C)c4ccccc4)C[C@@](O)([C@@H](OC(=O)c4ccccc4)[C@H]21)C3(C)C` [docetaxel], the “7-epi-docetaxel Amounts Produced” value (EtOH, 0 hr) is reported as 0 area %; the “7-epi-docetaxel Amounts Produced” value (EtOH, 1 hr) was found to be 0.4494 area %; the “7-epi-docetaxel Amounts Produced” value (EtOH, 5 hr) is listed as 1.8948 area %; the “7-epi-docetaxel Amounts Produced” value (EtOH, 10 hr) is 2.9451 area %; the “7-epi-docetaxel Amounts Produced” value (EtOH, 24 hr) was found to be 4.5544 area %; the “7-epi-docetaxel Amounts Produced” value (MeOH, 0 hr) is listed as 0 area %. Besides, the “7-epi-docetaxel Amounts Produced” value is, setting by setting: (MeOH, 1 hr) 4.0163 area %; (MeOH, 5 hr) 17.2282 area %; (MeOH, 10 hr) 28.4728 area %; (MeOH, 24 hr) 41.5352 area %. Besides, the “Change in Purity of Docetaxel” value runs as follows: (EtOH, 0 hr) 99.7480%; (EtOH, 1 hr) 99.2959%; (EtOH, 5 hr) 97.8546%; (EtOH, 10 hr) 96.8045%; (EtOH, 24 hr) 95.1952%; (MeOH, 0 hr) 99.7469%. Further, the “Change in Purity of Docetaxel” value was 95.7% and 95.7399% (MeOH, 1 hr); 81.8743% (MeOH, 5 hr); 69.3707% (MeOH, 10 hr); 50.7338% (MeOH, 24 hr).

(Values after US8163940B2, “Method for preparation of amorphous, anhydrous crystalline or hydrated crystalline docetaxel” (Samyang Genex Corporation, priority 2006, dated 2012).)
